Source: ChEMBL document CHEMBL1141332, “Cytotoxic metabolites from an Indonesian sponge Lendenfeldia sp” (J Nat Prod, 2007)

Experiments:
Type in all cases: functional
[1] = system: SW-620; experiment: Cytotoxicity against human SW620 cells
[2] = system: HOP-62; experiment: Cytotoxicity against human HOP62 cells
[3] = Cytotoxicity against human HS578T cells; conditions: Hs-578T
[4] = system: SNB-75; experiment: Cytotoxicity against human SNB75 cells
[5] = system: OVCAR-8; experiment: Cytotoxicity against human OVCAR8 cells
[6] = system: SK-MEL-2; experiment: Cytotoxicity against human SK-MEL-2 cells
[7] = system: SK-OV-3; experiment: Cytotoxicity against human SK-OV-3 cells
[8] = system: HOP-92; experiment: Cytotoxicity against human HOP92 cells
[9] = system: HCC 2998; experiment: Cytotoxicity against human HCC2998 cells
[10] = system: 786-0; experiment: Cytotoxicity against human 786-0 cells
[11] = system: NCI/ADR-RES; experiment: Cytotoxicity against human NCI/ADR-RES cells
[12] = system: SK-MEL-5; experiment: Cytotoxicity against human SK-MEL-5 cells
[13] = system: SK-MEL-28; experiment: Cytotoxicity against human SK-MEL-28 cells
[14] = system: UACC-257; experiment: Cytotoxicity against human UACC257 cells
[15] = system: OVCAR-3; experiment: Cytotoxicity against human OVCAR-3 cells
[16] = system: SNB-19; experiment: Cytotoxicity against human SNB19 cells; conditions: read-out: Log LC50 (the source's name) (converted)
[17] = system: BT-549; experiment: Cytotoxicity against human BT549 cells
[18] = system: NCI-H322M; experiment: Cytotoxicity against human NCI-H322M cells
[19] = system: UACC-62; experiment: Cytotoxicity against human UACC62 cells
[20] = system: A549; experiment: Cytotoxicity against human A549 cells
[21] = system: NCI-H226; experiment: Cytotoxicity against human NCI-H226 cells
[22] = system: UO-31; experiment: Cytotoxicity against human UO31 cells
[23] = system: MOLT-4; experiment: Cytotoxicity against human MOLT4 cells
[24] = system: SN12C; experiment: Cytotoxicity against human SN12C cells
[25] = system: MDA-MB-231; experiment: Cytotoxicity against human MDA-MB-231 cells
[26] = system: RPMI-8226; experiment: Cytotoxicity against human RPMI8226 cells
[27] = system: IGROV-1; experiment: Cytotoxicity against human IGROV1 cells
[28] = system: RXF 393; experiment: Cytotoxicity against human RXF393 cells
[29] = system: MDA-MB-435; experiment: Cytotoxicity against human MDA-MB-435 cells
[30] = system: LOX IMVI; experiment: Cytotoxicity against human LOX IMVI cells
[31] = system: HCT-116; experiment: Cytotoxicity against human HCT116 cells
[32] = system: HCT-15; experiment: Cytotoxicity against human HCT15 cells
[33] = system: KM12; experiment: Cytotoxicity against human KM12 cells
[34] = system: TK-10; experiment: Cytotoxicity against human TK10 cells
[35] = system: U-251; experiment: Cytotoxicity against human U251cells
[36] = system: HT-29; experiment: Cytotoxicity against human HT29 cells
[37] = system: OVCAR-5; experiment: Cytotoxicity against human OVCAR5 cells
[38] = system: M14; experiment: Cytotoxicity against human M14 cells
[39] = system: SF-295; experiment: Cytotoxicity against human SF295 cells
[40] = system: NCI-H460; experiment: Cytotoxicity against human NCI-H460 cells
[41] = system: EKVX; experiment: Cytotoxicity against human EKVX cells
[42] = system: SF-539; experiment: Cytotoxicity against human SF539 cells
[43] = system: NCI-H23; experiment: Cytotoxicity against human NCI-H23 cells
[44] = system: PC-3; experiment: Cytotoxicity against human PC3 cells
[45] = system: SF-268; experiment: Cytotoxicity against human SF268 cells
[46] = read-out: Log LC50 (the source's name) (converted)

CC(=O)O[C@@H]1C[C@H]2[C@]3(C)CC[C@H]4C(C)(C)CCC[C@]4(C)[C@H]3C[C@H](O)[C@]2(C)[C@@H](C=O)[C@@H]1C(C)=O [SCALARHERBACIN A]
GI50 [1]: 214 nM
CC50 [1, 46]: 1070 nM
TGI ([1]; read-out: Log TGI (converted)): 468 nM
GI50 [2]: 1070 nM
CC50 [2, 46]: 4790 nM
TGI ([2]; read-out: Log TGI (converted)): 2240 nM
GI50 [3]: 1020 nM
LC50 [3]: 8910 nM
TGI ([3]; read-out: Log TGI (converted)): 3020 nM
GI50 [4]: 1580 nM
CC50 [4, 46]: 5500 nM
TGI ([4]; read-out: Log TGI (converted)): 2950 nM
GI50 [5]: 676 nM
CC50 [5, 46]: 57500 nM
TGI ([5]; read-out: Log TGI (converted)): 3890 nM
GI50 [6]: 2240 nM
CC50 [6, 46]: 16600 nM
TGI ([6]; read-out: Log TGI (converted)): 4790 nM
GI50 [7]: 2000 nM
CC50 [7, 46]: 8130 nM
TGI ([7]; read-out: Log TGI (converted)): 3980 nM
GI50 [8]: 1320 nM
CC50 [8, 46]: 5500 nM
TGI ([8]; read-out: Log TGI (converted)): 2690 nM
GI50 [9]: 1510 nM
CC50 [9, 46]: 5620 nM
TGI ([9]; read-out: Log TGI (converted)): 2950 nM
GI50 [10]: 479 nM
CC50 [10, 46]: 4070 nM
TGI ([10]; read-out: Log TGI (converted)): 1620 nM
GI50 [11]: 1660 nM
LC50 [11]: 7080 nM
TGI ([11]; read-out: Log TGI (converted)): 3470 nM
GI50 [12]: 1290 nM
CC50 [12, 46]: 5250 nM
TGI ([12]; read-out: Log TGI (converted)): 2630 nM
GI50 [13]: 389 nM
TGI ([13]; read-out: Log TGI (converted)): 1290 nM
GI50 [14]: 2190 nM
CC50 [14, 46]: 27500 nM
TGI ([14]; read-out: Log TGI (converted)): 5250 nM
GI50 [15]: 1120 nM
CC50 [15, 46]: 5500 nM
TGI ([15]; read-out: Log TGI (converted)): 2510 nM
CC50 [16]: 1660 nM
GI50 [17]: 562 nM
LC50 [17]: 4370 nM
TGI ([17]; read-out: Log TGI (converted)): 1780 nM
GI50 [18]: 2140 nM
CC50 [18, 46]: 8710 nM
TGI ([18]; read-out: Log TGI (converted)): 4270 nM
GI50 [19]: 1580 nM
CC50 [19, 46]: 5500 nM
TGI ([19]; read-out: Log TGI (converted)): 2950 nM
GI50 [20]: 1230 nM
CC50 [20, 46]: 6610 nM
TGI ([20]; read-out: Log TGI (converted)): 2820 nM
GI50 [21]: 1580 nM
CC50 [21, 46]: 6760 nM
TGI ([21]; read-out: Log TGI (converted)): 3240 nM
GI50 [22]: 1230 nM
TGI ([22]; read-out: Log TGI (converted)): 2570 nM
GI50 [23]: 324 nM
CC50 [23, 46]: 4170 nM
TGI ([23]; read-out: Log TGI (converted)): 1120 nM
GI50 [24]: 1350 nM
TGI ([24]; read-out: Log TGI (converted)): 2750 nM
GI50 [25]: 1480 nM
TGI ([25]; read-out: Log TGI (converted)): 2880 nM
GI50 [26]: 407 nM
CC50 [26, 46]: 13200 nM
TGI ([26]; read-out: Log TGI (converted)): 2090 nM
GI50 [27]: 1950 nM
CC50 [27, 46]: 8320 nM
TGI ([27]; read-out: Log TGI (converted)): 4070 nM
GI50 [28]: 1150 nM
LC50 [28]: 5370 nM
TGI ([28]; read-out: Log TGI (converted)): 2510 nM
GI50 [29]: 1450 nM
LC50 [29]: 6760 nM
TGI ([29]; read-out: Log TGI (converted)): 3090 nM
GI50 [30]: 1000 nM
CC50 [30, 46]: 4680 nM
TGI ([30]; read-out: Log TGI (converted)): 2140 nM
GI50 [31]: 407 nM
CC50 [31, 46]: 3720 nM
TGI ([31]; read-out: Log TGI (converted)): 1380 nM
GI50 [32]: 759 nM
CC50 [32, 46]: 4790 nM
TGI ([32]; read-out: Log TGI (converted)): 2040 nM
GI50 [33]: 1480 nM
CC50 [33, 46]: 8510 nM
TGI ([33]; read-out: Log TGI (converted)): 3550 nM
GI50 [34]: 1380 nM
LC50 [34]: 6610 nM
TGI ([34]; read-out: Log TGI (converted)): 3020 nM
GI50 [35]: 589 nM
CC50 [35, 46]: 4270 nM
TGI ([35]; read-out: Log TGI (converted)): 1780 nM
GI50 [36]: 309 nM
CC50 [36, 46]: 3800 nM
TGI ([36]; read-out: Log TGI (converted)): 1100 nM
GI50 [37]: 1320 nM
CC50 [37, 46]: 5130 nM
TGI ([37]; read-out: Log TGI (converted)): 2630 nM
GI50 [38]: 1450 nM
CC50 [38, 46]: 5370 nM
TGI ([38]; read-out: Log TGI (converted)): 2750 nM
GI50 [39]: 1450 nM
CC50 [39, 46]: 6170 nM
TGI ([39]; read-out: Log TGI (converted)): 3020 nM
GI50 [40]: 1450 nM
CC50 [40, 46]: 6760 nM
TGI ([40]; read-out: Log TGI (converted)): 3160 nM
GI50 [41]: 1320 nM
CC50 [41, 46]: 5750 nM
TGI ([41]; read-out: Log TGI (converted)): 2750 nM
GI50 [42]: 417 nM
TGI ([42]; read-out: Log TGI (converted)): 1580 nM
GI50 [43]: 1660 nM
CC50 [43, 46]: 6170 nM
TGI ([43]; read-out: Log TGI (converted)): 3240 nM
GI50 [44]: 741 nM
LC50 [44]: 5250 nM
TGI ([44]; read-out: Log TGI (converted)): 2140 nM
GI50 [45]: 1450 nM
CC50 [45, 46]: 7410 nM
TGI ([45]; read-out: Log TGI (converted)): 3240 nM
